In experiment [1] the target is T1, Ht cyt c552 (Hydrogenobacter thermophilus cytochrome c552) (Hydrogenobacter thermophilus, UniProt P15452).
T1 sequence (P15452 19-98): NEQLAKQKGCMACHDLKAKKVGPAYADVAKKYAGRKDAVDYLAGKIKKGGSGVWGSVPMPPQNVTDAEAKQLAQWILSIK
Kind of experiment: protein film voltammetry titration, pyrolytic graphite edge electrode. It is filed as binding.

In experiment [2] the target is T2, Ht cyt c552 (Hydrogenobacter thermophilus cytochrome c552) (Hydrogenobacter thermophilus, UniProt P15452, M77A).
T2 sequence (P15452 19-98 M77A): T1 sequence (P15452 19-98) with M59A
The description is as above. Format: binding.

Substitutions are numbered along the chain they refer to. pKd: −log10 of the molar value.

Broadly, the pKd is −log10 of the Kd, conventionally taken in molar units. Read a high pKd as a small Kd. As to `c1c[nH]cn1` [Im, imidazole], the figures for the pKd in experiment [1] and in experiment [2] were 2.62 and 3.12, respectively.

Source of the values: paper PMC3724358 (The journal of physical chemistry. B, 2011).
